Patent US8658604B2, “Template-fixed beta-hairpin peptidomimetics with protease inhibitory activity” (Polyphor Ltd, priority 2005, dated 2014)
Where two headings read alike, the source gives them in different places. Where a SMILES comes first, the peptide text is derived from it.

Tests used:
[1] = molecular target: Coagulation Factor Xa, from uman plasma (Homo sapiens, UniProt P00742); test: Enzymatic assay, coagulation factor Xa
[2] = format: in vitro ADME; details: 10 µM
Protocol: 405 μl of plasma/albumin solution were placed in a polypropylene (PP) tube and spiked with 45 μl of compound from a […] solution B, derived from 135 μl of PBS and 15 μl of 1 mM peptide in PBS, pH 7.4. 150 μl aliquots were transferred into individual wells of the 10 kDa filter plate (Millipore MAPPB 1010 Biomax membrane). For “0 minutes controls”: 270 μl of PBS were placed in a PP tube and 30 μl of stock solution B was added and vortexed. 150 μl of control solution were placed into one well of the filter plate and served as “filtered control”.
Further 150 μl of control solution were placed directly into a receiver well (reserved for filtrate) and served as “not-filtered control”. The entire plate including evaporation lid was incubated for 60 min at 37° C. Plasma samples (rat plasma: Harlan Sera lab UK, human plasma: Blutspendezentrum Zürich) were centrifuged at least for 2 h at 4300 rpm (3500 g) and 15° C. in order to yield 100 filtrate. For “serum albumin”-samples (freshly prepared human albumin: Sigma A-4327, rat albumin: Sigma A-6272, all at 40 mg/ml concentration in PBS) approximately 1 hour of centrifugation was sufficient. The filtrates in the receiver PP plate were analysed by LC/MS as follower follows: Column: Jupiter C18 (Phenomenex), mobile phases: (A) 0.1% formic acid in water and (B) acetonitrile, gradient: 5%-100% (B) in 2 minutes, electrospray ionization, MRM detection (triple quadrupole). The peak areas were determined and triplicate values were averaged. The binding was expressed in percent of the (filtered and not-filtered time point 0 min) control 1 and 2 by: 100−(100×T60/T0). The average from these values was then calculated.

[3] = molecular target: Thrombin, from Human Plasma (Homo sapiens, UniProt P00734); test: Enzymatic assay, thrombin
[4] = test system: Tryptase, from human lung; test: Enzymatic assay, tryptase; details: at 100 μM
[5] = molecular target: T1, Elastase from human neutrophils (Homo sapiens, UniProt P08246); test: Enzymatic assay, elastase
T1 sequence (P08246 30-267): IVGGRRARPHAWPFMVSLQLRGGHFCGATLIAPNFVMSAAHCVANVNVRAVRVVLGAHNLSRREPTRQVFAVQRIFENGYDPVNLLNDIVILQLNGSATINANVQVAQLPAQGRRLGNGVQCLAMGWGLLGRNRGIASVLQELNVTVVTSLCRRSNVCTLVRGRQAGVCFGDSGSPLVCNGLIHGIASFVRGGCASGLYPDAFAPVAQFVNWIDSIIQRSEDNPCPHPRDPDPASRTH

[6] = molecular target: Trypsin, from human pancreas (Homo sapiens, UniProt P07477); test: Enzymatic assay, trypsin; details: at 100 μM
[7] = molecular target: T2, CathepsinG, from human neutrophils (Homo sapiens, UniProt P08311); test: Enzymatic assay, cathepsin G
T2 sequence (P08311 21-244): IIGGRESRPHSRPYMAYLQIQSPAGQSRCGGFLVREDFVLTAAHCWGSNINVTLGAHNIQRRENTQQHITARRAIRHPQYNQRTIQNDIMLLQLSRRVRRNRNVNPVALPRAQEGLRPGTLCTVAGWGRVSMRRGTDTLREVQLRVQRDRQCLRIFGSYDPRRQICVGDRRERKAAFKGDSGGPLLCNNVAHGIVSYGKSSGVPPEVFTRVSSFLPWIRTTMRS

[8] = molecular target: Chymotrypsin, from human pancreas (Homo sapiens, UniProt P17538); test: Enzymatic assay, chymotrypsin
Sequence of Chymotrypsin, from human pancreas (P17538 19-263): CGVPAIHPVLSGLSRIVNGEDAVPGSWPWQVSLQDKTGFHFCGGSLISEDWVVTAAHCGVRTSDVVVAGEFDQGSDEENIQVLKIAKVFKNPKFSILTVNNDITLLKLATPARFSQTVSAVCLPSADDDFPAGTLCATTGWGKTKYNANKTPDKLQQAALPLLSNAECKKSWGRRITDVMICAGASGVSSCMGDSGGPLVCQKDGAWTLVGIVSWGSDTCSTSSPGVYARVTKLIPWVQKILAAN

Chymase, from human skin = molecular target: T3, Chymase, from human skin (Homo sapiens, UniProt P23946); test: Enzymatic assay, chymase
T3 sequence (P23946 22-247): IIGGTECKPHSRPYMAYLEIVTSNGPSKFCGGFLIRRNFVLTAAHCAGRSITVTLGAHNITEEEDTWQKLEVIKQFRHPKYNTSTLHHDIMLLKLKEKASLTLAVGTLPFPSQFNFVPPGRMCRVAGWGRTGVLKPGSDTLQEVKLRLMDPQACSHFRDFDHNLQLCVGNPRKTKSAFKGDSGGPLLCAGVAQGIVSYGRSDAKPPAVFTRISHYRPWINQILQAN

[9] = test system: human red blood cells (hRBC); test: Hemolysis
Protocol: The peptides were tested for their hemolytic activity against human red blood cells (hRBC). Fresh hRBC were washed three times with phosphate buffered saline (PBS) by centrifugation for 10 min at 2000×g. Peptides at a concentration of 100 μM were incubated with 20% v/v hRBC for 1 hour at 37° C. The final erythrocyte concentration was approximately 0.9×10^9 cells per ml. A value of 0% and, respectively, 100% cell lysis was determined by incubation of the hRBC in the presence of PBS alone and, respectively, 0.1% Triton X-100 in H2O. […] The 100% lysis value (OD540H20) gave an OD540 of approximately 1.3-1.8. Percent hemolysis was calculated as follows: (OD540peptide/OD540H20)×100%.

HELA cells (Acc57) = test: Cytotoxicity assay (MTT reduction), HELA cells; format: cell-based; details: Hela cells
Outline: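 HeLa cells were grown for 24 h, then exposed to peptides at 12.5, 25 and 50 μM in triplicate for 48 h at 37 °C. MTT reduction was read at 595 nm and growth % calculated relative to time-zero wells. LC50 interpolated by linear trend at −50% growth, GI50 at 50%.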

[10] = molecular target: Urokinase from human urine (Homo sapiens, UniProt P00749); test: Enzymatic assay, urokinase

Sequence of Coagulation Factor Xa, from uman plasma (P00742 235-488 limits assumed): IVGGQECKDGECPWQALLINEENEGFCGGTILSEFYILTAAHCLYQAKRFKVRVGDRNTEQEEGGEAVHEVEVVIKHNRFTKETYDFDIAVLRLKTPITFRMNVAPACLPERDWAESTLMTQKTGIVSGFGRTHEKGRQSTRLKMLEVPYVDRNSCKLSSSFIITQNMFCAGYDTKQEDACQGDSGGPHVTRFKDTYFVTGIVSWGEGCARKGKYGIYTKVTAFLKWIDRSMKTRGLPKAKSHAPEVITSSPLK
Sequence of Coagulation Factor Xa, from uman plasma (P00742 41-179 limits assumed): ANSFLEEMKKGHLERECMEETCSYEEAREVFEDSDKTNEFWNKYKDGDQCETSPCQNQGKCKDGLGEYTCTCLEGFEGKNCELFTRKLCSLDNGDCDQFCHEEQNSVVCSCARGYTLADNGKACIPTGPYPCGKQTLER

SMILES	FXa at 100 μM % [1] [%]	Stability human Plasma t1/2 [2] [h]	Stability rat Plasma t1/2 [2] [h]	Thrombin at 100 μM % [3] [%]	Tryptase at 100 μM % [4] [%]	IC50 ([5]; Elastase IC50) [µM]	Trypsin at 100 μM % [6] [%]	IC50 ([7]; Cathepsin G IC50) [µM]	Chymotrypsin at 100 μM % [8] [%]	Chymase at 100 μM % (Chymase, from human skin) [%]	Hemolysis at 100 μM % [9] [%]	Cytotoxicity LC50/GI50 Hela cells (HELA cells (Acc57)) [µM]	Urokinase at 100 μM % [10] [%]	IC50 ([5]; read-out: Elastase IC50) [µM]	IC50 ([7]; read-out: Cathepsin G IC50) [µM]	IC50 [8] [µM]	Tryptase At 100 μM % [4] [%]	Cathepsin G at 100 μM % ([7]; at 100 μM) [at 100%]
CCCC[C@@H]1NC(=O)[C@H]([C@@H](C)O)NC(=O)[C@@H]2CSSC[C@H](NC(=O)[C@H]([C@@H](C)CC)NC(=O)[C@@H]3CCCN3C(=O)[C@@H]3CCCN3C(=O)[C@H](CC(=O)O)NC(=O)[C@H](CO)NC1=O)C(=O)N[C@@H](Cc1ccc(O)cc1)C(=O)N1CCC[C@@H]1C(=O)N1CCC[C@H]1C(=O)N[C@@H](Cc1ccccc1)C(=O)N2 [Ex. 23] (HELM PEPTIDE1{F.C.T.[Nle].S.D.P.P.I.C.Y.[dP].P}$PEPTIDE1,PEPTIDE1,2:R3-10:R3|PEPTIDE1,PEPTIDE1,1:R1-13:R2$$$V2.0)	11	5	5	0	29	> 100	90	0.038	4	60	0	51	9					
CC[C@H](C)[C@@H]1NC(=O)[C@H](C)NC(=O)[C@@H]2CCCN2C(=O)[C@H](CC(=O)O)NC(=O)[C@H](CO)NC(=O)[C@H](CCCCN)NC(=O)[C@H]([C@@H](C)O)NC(=O)[C@@H]2CSSC[C@H](NC1=O)C(=O)N[C@@H](CCCNC(=N)N)C(=O)N1CCC[C@@H]1C(=O)N1CCC[C@H]1C(=O)N[C@@H]([C@@H](C)CC)C(=O)N2 [Ex. 52] (HELM PEPTIDE1{I.C.T.K.S.D.P.A.I.C.R.[dP].P}$PEPTIDE1,PEPTIDE1,2:R3-10:R3|PEPTIDE1,PEPTIDE1,1:R1-13:R2$$$V2.0)	6			8.7	84.2		86		0	42.3	0	100	5.4	> 100	0.052			
CCCC[C@@H]1NC(=O)[C@H]([C@@H](C)O)NC(=O)[C@@H]2CSSC[C@H](NC(=O)[C@H]([C@@H](C)CC)NC(=O)[C@@H]3CCCN3C(=O)[C@@H]3CCCN3C(=O)[C@H](CC(=O)O)NC(=O)[C@H](CO)NC1=O)C(=O)N[C@@H](Cc1ccc(O)cc1)C(=O)N1CCC[C@@H]1C(=O)N1CCC[C@H]1C(=O)N[C@@H](Cc1ccccc1)C(=O)N2 [Ex. 60] (HELM PEPTIDE1{F.C.T.[Nle].S.D.P.P.I.C.Y.[dP].P}$PEPTIDE1,PEPTIDE1,2:R3-10:R3|PEPTIDE1,PEPTIDE1,1:R1-13:R2$$$V2.0)	11			0	29.4		90		4	60	0	51	9	> 100	0.038			
CCCC[C@@H]1NC(=O)[C@@H]2CCCN2C(=O)[C@@H]2CCCN2C(=O)[C@H](CC(=O)O)NC(=O)[C@H](CO)NC(=O)[C@H](CCCCN)NC(=O)[C@H]([C@@H](C)O)NC(=O)[C@@H]2CSSC[C@H](NC1=O)C(=O)N[C@@H](Cc1ccc(O)cc1)C(=O)N1CCC[C@@H]1C(=O)N1CCC[C@H]1C(=O)N[C@@H](C1CCCCC1)C(=O)N2 [Ex. 63] (HELM PEPTIDE1{[O=C([C@@H](N[*:1])C1CCCCC1)[*:2]].C.T.K.S.D.P.P.[Nle].C.Y.[dP].P}$PEPTIDE1,PEPTIDE1,2:R3-10:R3|PEPTIDE1,PEPTIDE1,1:R1-13:R2$$$V2.0)	0			1	50	> 100	96	0.041	11	7	0	87	0					
CC[C@H](C)[C@@H]1NC(=O)[C@@H]2CCCN2C(=O)[C@@H]2CCCN2C(=O)[C@H](CC(=O)O)NC(=O)[C@H](CO)NC(=O)[C@H](CCCCN)NC(=O)[C@H]([C@@H](C)O)NC(=O)[C@@H]2CSSC[C@H](NC1=O)C(=O)N[C@@H](CO)C(=O)N1CCC[C@@H]1C(=O)N[C@@H](CCC(=O)O)C(=O)N[C@@H](Cc1ccccc1)C(=O)N2 [Ex. 64] (HELM PEPTIDE1{F.C.T.K.S.D.P.P.I.C.S.[dP].E}$PEPTIDE1,PEPTIDE1,2:R3-10:R3|PEPTIDE1,PEPTIDE1,1:R1-13:R2$$$V2.0)	0			2.3	0	> 100	87	0.045	0	0	0	59	3					
CCCC[C@@H]1NC(=O)[C@H](CC(=O)O)NC(=O)[C@H]2CCCN2C(=O)[C@H](Cc2ccc(O)cc2)NC(=O)[C@@H]2CSSC[C@H](NC1=O)C(=O)N[C@@H]([C@@H](C)O)C(=O)N[C@@H](C)C(=O)N[C@@H](CO)C(=O)N[C@@H]([C@@H](C)CC)C(=O)N1CCC[C@H]1C(=O)N1CCC[C@H]1C(=O)N[C@@H](CCC(N)=O)C(=O)N2 [Ex. 121] (HELM PEPTIDE1{[Nle].C.T.A.S.I.P.P.Q.C.Y.[dP].D}$PEPTIDE1,PEPTIDE1,2:R3-10:R3|PEPTIDE1,PEPTIDE1,1:R1-13:R2$$$V2.0)	5.6	5	5	0	4.6	0.018	12.8	11.2		1.2		49	5.7			27.5		
C[C@@H]1NC(=O)[C@H]([C@@H](C)O)NC(=O)[C@@H]2CSSC[C@H](NC(=O)[C@H](CCC(N)=O)NC(=O)[C@@H]3CCCN3C(=O)[C@@H]3CCCN3C(=O)[C@H](CC3CCCCC3)NC(=O)[C@H](CO)NC1=O)C(=O)N[C@@H](CCC(N)=O)C(=O)N1CCC[C@@H]1C(=O)N1CCC[C@H]1C(=O)N[C@@H](CCc1ccccc1)C(=O)N2 [Ex. 158] (HELM PEPTIDE1{[O=C([C@H](CCc1ccccc1)N[*:1])[*:2]].C.T.A.S.[Cha].P.P.Q.C.Q.[dP].P}$PEPTIDE1,PEPTIDE1,2:R3-10:R3|PEPTIDE1,PEPTIDE1,1:R1-13:R2$$$V2.0)	1	5	5	2		0.0071	8		93	0			10				13	55
